Experimental data reported in patent US20260007730A1, “HUMAN CTLA-4 PEPTIDE VACCINES AND USES THEREOF” (Ohio State Innovation Foundation, priority 2022, published 2026).
Where no end group is shown, it is not given here. [ ]: non-standard residue; d: D form.

Experiments:
Type in all cases: in vivo, BALB/c mice
[1] = test system: CT26 colon carcinoma; assay: CTLA-4 peptide vaccines in CT26-BALB/c tumor model
Procedure: (§1) 6-8 weeks old BALB/c mice were vaccinated with MVF-CTLA-4 (59), MVF-CTLA-4 (75), MVF-CTLA-4 (92) or MVF-CTLA-4 (130) for 3 weeks interval. 0.1 mg peptide cancer vaccine mixed with ISA 720 (1:1) used per mouse. Mice were boosted with the designed doses for every 3 weeks intervals. Blood was collected weekly for monitoring antibody titers.
After 2 weeks of the third time immunization (3Y), mice were challenged with 10^5 per mouse CT26 (FIG. 3A). After tumor challenge, the positive control group, we treat the mice with anti-mouse CTLA-4 antibody (clone 9H10) twice a week for up to three weeks, and the negative control group was treated with PBS. Tumor volume was calculated as: Tumor volume (LWW)=(Length×Width×Width)/2. Mean value of tumor growths in BALB/c mice were vaccinated with MVF-CTLA-4 (59), MVF-CTLA-4 (75), MVF-CTLA-4 (92) or MVF-CTLA-4 (130), PBS as negative control and anti-mouse CTLA-4 antibody (clone 9H10) as positive control. […] Individual mouse CT26 tumor growths in each group of mice were vaccinated with MVF-CTLA-4 (59), MVF-CTLA-4 (75), MVF-CTLA-4 (92) or MVF-CTLA-4 (130), PBS as negative control and anti-mouse CTLA-4 antibody (clone 9H10) as positive control (FIG. 3C).
(§2) Mice challenged with tumor cells were monitored at least twice per week and tumor sizes were measured by calipers. Formula: Volume (LWW)=(Length×Width×Width)/2 was used to calculate tumor volumes. […] Data statistical analysis was performed by GraphPad Prism 8.1.2 (GraphPad Software, Inc. San Diego, CA, USA) and the indicated statistical analysis. One-way analysis of variance (one-way ANOVA) and followed by the Tukey's multiple comparisons test were used to compare data in multiple groups or data between groups in multiple groups. And the two-way ANOVA was used to analysis the whole curves comparison. The Log-rank (Mantel-Cox) test was use to compare the survival curves. P value or adjusted p value less than 0.05 was accepted as statistically significant different.

[2] = test system: 4T1 breast cancer cells; assay: CTLA-4 peptide vaccines in 4T1-BALB/c tumor model; conditions: for survival versus PBS group (Log-rank test): 4T1
Procedure: 6-8 weeks old BALB/c mice were vaccinated with MVF-CTLA-4 (59), MVF-CTLA-4 (75), MVF-CTLA-4 (92) or MVF-CTLA-4 (130) for 3 weeks interval. 0.1 mg peptide cancer vaccine mixed with ISA 720 (1:1) used per mouse. Mice were boosted with the designed doses for every 3 weeks intervals. Blood was collected weekly for monitoring antibody titers. After 2 weeks of the third time immunization (3Y), mice were challenged with 10^5 per mouse 4T1 (FIG. 4A). After tumor challenge, the positive control group, we treat the mice with anti-mouse CTLA-4 antibody (clone 9H10) twice a week for up to three weeks, and the negative control group was treated with PBS. Tumor volume was calculated as: Tumor volume (LWW)=(Length×Width×Width)/2
as §2

[3] = test system: D2F2 mammary tumor cells; assay: CTLA-4 peptide vaccines in D2F2-BALB/c tumor model; conditions: for survival versus PBS group (Log-rank test): D2F2
Procedure: as §1, with “mouse (FIG. 5A).” for “mouse.”, “titers. After 2 weeks of the third time immunization (3Y), mice were challenged with 2×10^5 per mouse D2F2 mammary tumor cells.” for “titers.”
After tumor challenge, the positive control group, we treat the mice with anti-mouse CTLA-4 antibody (clone 9H10) twice a week for up to three weeks, and the negative control group was treated with PBS. Tumor volume was calculated as: Tumor volume (LWW)=(Length×Width×Width)/2.
as §2

[4] = test system: CT26 tumor cells; assay: CTLA-4 peptide mimics in CT26-BALB/c tumor model (V32); conditions: CT26, 200 ug peptide mimic from day 1, Day 14
Procedure: 6-8 weeks old BALB/c mice were challenged with 1×10^5 per mouse CT26 tumor cells (FIG. 6A). After tumor challenge, the positive control group, we treat the mice with anti-mouse CTLA-4 antibody (clone 9H10) twice a week, start from day 1 post tumor challenge and the negative control group was treated with PBS. For the CTLA-4 peptide mimic treatment groups, mice were treated with 200 ug peptide mimics as indicated start from day 1 post tumor challenging. All the mice had been treated at day 1, day 2, day 5, day 7, day 9, day 12, day 14, and day 16 post tumor challenge. The immunogenicity (antibody titer) was under detectable. Tumor volume was calculated as: Tumor volume (LWW)=(Length×Width×Width)/2
as §2, with “P value or adjusted p value less than 0.05 was accepted as statistically significant different.” left out

Row | Molecule | tumor volume LWW versus PBS group ([1]; CT26, day 14) | tumor volume LWW versus PBS group ([1]; CT26, day 16) | survival versus PBS group (Log-rank test) [2] | tumor volume LWW versus PBS group ([2]; 4T1, day 14) | tumor volume LWW versus PBS group ([2]; 4T1, day 16) | survival versus PBS group (Log-rank test) [3] | tumor volume LWW versus PBS group ([3]; D2F2, day 14) | tumor volume LWW versus PBS group ([3]; D2F2, day 16) | tumor volume LWW versus PBS group ([3]; D2F2, day 19) | tumor volume LWW versus PBS group ([3]; D2F2, day 21) | also measured
1 | KLLSLIKGVIVHRLEGVEGPSLEYASPGKATEVRVTVLRQA-CONH2 (KLLSLIKGVIVHRLEGVEGPSLEYASPGKATEVRVTVLRQA-NH2; not fully specified; printed as KLLSLIKGVIVHRLEGVEGPSLEYASPGKATEVRVTVLRQA-CONH2) [MVF-CTLA-4 (59)] | significant smaller tumor size | significant smaller tumor size | significant longer survival | significant smaller tumor size | significant smaller tumor size | significant different longer survival | significantly smaller tumor size | significantly smaller tumor size | significantly smaller tumor size | significantly smaller tumor size | tumor volume LWW versus PBS group ([1]; CT26, day 14, listed as CTLA-4 (59)): significantly smaller tumor size; tumor volume LWW versus PBS group ([1]; CT26, day 16, listed as CTLA-4 (59)): significantly smaller tumor size; tumor volume LWW versus PBS group ([2]; 4T1, day 14, listed as CTLA-4 (59)): significantly smaller tumor size; tumor volume LWW versus PBS group ([2]; 4T1, day 16, listed as CTLA-4 (59)): significantly smaller tumor size
2 | KLLSLIKGVIVHRLEGVEGPSLRQADSQVTEVCAATYMMG-CONH2 (KLLSLIKGVIVHRLEGVEGPSLRQADSQVTEVCAATYMMG-NH2; not fully specified; printed as KLLSLIKGVIVHRLEGVEGPSLRQADSQVTEVCAATYMMG-CONH2) [MVF-CTLA-4 (75)] | – | – | significant longer survival | significant smaller tumor size | significant smaller tumor size | – | significantly smaller tumor size | significantly smaller tumor size | significantly smaller tumor size | significantly smaller tumor size | tumor volume LWW versus PBS group ([2]; 4T1, day 14, listed as CTLA-4 (75)): significantly smaller tumor size; tumor volume LWW versus PBS group ([2]; 4T1, day 16, listed as CTLA-4 (75)): significantly smaller tumor size
3 | H2N-YIQTGNGIGLYYPPPYMLEVK-CONH2 (H-[dY][dI][dQ][dT]G[dN]G[dI]G[dL][dY][dY][dP][dP][dP][dY][dM][dL][dE][dV][dK]-NH2; also: retro-inverso) [CTLA-4 (9) RIL (150-130)] | – | – | – | – | – | – | – | – | – | – | tumor volume, between groups comparison vs PBS (p or words) [4]: < 0.05
4 | KLLSLIKGVIVHRLEGVE-GPSL-KVELMYPPPYYLGIGNGTQIY-CONH2 (KLLSLIKGVIVHRLEGVEGPSLKVELMYPPPYYLGIGNGTQIY-NH2; not fully specified; printed as KLLSLIKGVIVHRLEGVE-GPSL-KVELMYPPPYYLGIGNGTQIY-CONH2) [MVF-CTLA-4 (130)] | significant smaller tumor size | significant smaller tumor size | – | significant smaller tumor size | – | significant different longer survival | significantly smaller tumor size | significantly smaller tumor size | significantly smaller tumor size | significantly smaller tumor size | tumor volume LWW versus PBS group ([1]; CT26, day 14, listed as CTLA-4 (130)): significantly smaller tumor size; tumor volume LWW versus PBS group ([1]; CT26, day 16, listed as CTLA-4 (130)): significantly smaller tumor size; tumor volume LWW versus PBS group ([2]; 4T1, day 14, listed as CTLA-4 (130)): significantly smaller tumor size
5 | KLLSLIKGVIVHRLEGVEGPSLGNELTFLDDSICTGTSSGNQVNFHMSVVRARRNDSGTYL-CONH2 (not fully specified; printed as KLLSLIKGVIVHRLEGVEGPSLGNELTFLDDSICTGTSSGNQVNFHMSVVRARRNDSGTYL-CONH2) KLLSLIKGVIVHRLEGVEGPSLGNELTFLDDSICTGTSSGNQVNFHMSVVRARRNDSGTYL-NH2 | significant smaller tumor size | significant smaller tumor size | – | – | significant smaller tumor size | – | without difference | significantly smaller tumor size | significantly smaller tumor size | significantly smaller tumor size | tumor volume LWW versus PBS group ([1]; CT26, day 14, listed as CTLA-4 (92)): significantly smaller tumor size; tumor volume LWW versus PBS group ([1]; CT26, day 16, listed as CTLA-4 (92)): significantly smaller tumor size; tumor volume LWW versus PBS group ([2]; 4T1, day 16, listed as CTLA-4 (92)): significantly smaller tumor size
